The results in this text go back to patent US6867316B2, “Platinum(II) complexes of N-substituted amino dicarboxylates and the preparation method thereof” (Board of Trustees, Ewha Womans University, priority 2003, dated 2005).

Assay [1] has as its system leukemia L1210 cell line. Kind of assay: Antitumor activity bioassay against leukemia L1210, T/C (%) at given dosage. In kind it is in vivo.
Assay [2] has as its system leukemia L1210 cell line. Put plainly: Antitumor activity bioassay against leukemia L1210 cell line (IC50). In kind it is cell-based. As for the experimental part: Antitumor activities of the platinum complexes prepared in the above Examples 1 to 9 were assayed against the leukemia L1210 cell line according to the known method (S. S. Lee, O.-S. Jung, C. O. Lee, S. U. Choi, M.-J. Jun, Y. S. Sohn, Inorg. Chim. Acta, 239, 133 (1995)), and the results are shown in Table 1.

Take `CC(=O)N[C@@H](CCC(=O)[O-])C(=O)[O-].N[C@@H]1CCCC[C@H]1N.[Pt+2]` (racemic) [Pt(dach)(AcGlu), (N-acetyl-L-glutamato-O,O)(trans-(±)-1,2-diaminocyclo-hexane-N,N)platinum(II) complex]: the “T/C (%)” value in the assay with leukemia L1210 cell line [1] (dosage amount 20 mg/kg) is listed as 227.3%; with leukemia L1210 cell line [1] (dosage amount 40 mg/kg) it was 190.9%. Also, the IC50 (commonly the concentration that inhibits the measured activity by half) with leukemia L1210 cell line [2] was found to be 4.63 µM.
As for `N[C@@H]1CCCC[C@H]1N.O=C([O-])C[C@H](NC(=O)OCc1ccccc1)C(=O)[O-].[Pt+2]` (racemic) [Pt(dach)(CbzAsp), (N-carbobenzyloxy-L-aspartato-O,O)(trans-(±)-1,2-diamino-cyclohexane-N,N)platinum(II)], the “T/C (%)” value in the assay on leukemia L1210 cell line [1] (dosage amount 20 mg/kg) came out at 175.0%; in the assay with leukemia L1210 cell line [1] (dosage amount 40 mg/kg), 193.8%. The compound also gave an IC50 with leukemia L1210 cell line [2] of 26.5 µM.
Turning to `N[C@@H]1CCCC[C@H]1N.O=C([O-])CC[C@H](NC(=O)OCc1ccccc1)C(=O)[O-].[Pt+2]` (racemic) [Pt(dach)(CbzGlu), (N-carbobenzyloxy-L-glutamato-O,O)(trans-(±)-1,2-diaminocyclohexane-N,N)platinum(II)], the entries for the “T/C (%)” value with leukemia L1210 cell line [1] (dosage amount 20 mg/kg) and in the assay with leukemia L1210 cell line [1] (dosage amount 40 mg/kg) were 170.0% and 207.5%, respectively. In the assay with leukemia L1210 cell line [2], this compound displayed an IC50 of 65.1 µM.
For the compound `N[C@@H]1CCCC[C@H]1N.O=C([O-])CC[C@@H](C(=O)[O-])N1C(=O)c2ccccc2C1=O.[Pt+2]` (racemic) [Pt(dach)(PhthGlu), (N-phthaloyl-L-glutamato-O,O)(trans-(±)-1,2-diaminocyclo-hexane-N,N)platinum(II)], the “T/C (%)” value in the assay on leukemia L1210 cell line [1] (dosage amount 20 mg/kg) is on record as 177.3%; with leukemia L1210 cell line [1] (dosage amount 40 mg/kg), 221.6%. For the same compound, the concentration for half-maximal inhibition (IC50) in the assay on leukemia L1210 cell line [2] came to 34.9 µM.
For `CC(C)(C)C(=O)N[C@@H](CCC(=O)[O-])C(=O)[O-].N[C@@H]1CCCC[C@H]1N.[Pt+2]` (racemic) [Pt(dach)(PivGlu), (N-pivalyl-L-glutamato-O,O)(trans-(±)-1,2-diaminocyclo-hexane-N,N)platinum(II)], the “T/C (%)” value is reported as 211.3% with leukemia L1210 cell line [1] (dosage amount 20 mg/kg) and 212.5% with leukemia L1210 cell line [1] (dosage amount 40 mg/kg). Further, in the assay on leukemia L1210 cell line [2], the concentration for half-maximal inhibition (IC50) stood at 2.23 µM.
On the same counts, the results for `CCC(=O)N[C@@H](CCC(=O)[O-])C(=O)[O-].N[C@@H]1CCCC[C@H]1N.[Pt+2]` (racemic) [Pt(dach)(ProGlu), (N-propionyl-L-glutamato-O,O)(trans-(±)-1,2-diaminocyclo-exane-N,N)platinum(II)] are 212.5%, 228.8% and 2.94 µM.
As for `Cc1ccc(S(=O)(=O)N[C@@H](CCC(=O)[O-])C(=O)[O-])cc1.N[C@@H]1CCCC[C@H]1N.[Pt+2]` (racemic) [Pt(dach)(TsGlu), (N-tosyl-L-glutamato-O,O)(trans-(±)-1,2-diaminocyclo-hexane-N,N)platinum(II)], the “T/C (%)” value in the assay on leukemia L1210 cell line [1] (dosage amount 20 mg/kg) was determined as 176.3%; in the assay on leukemia L1210 cell line [1] (dosage amount 40 mg/kg), 191.3%. For the same compound, the IC50 in the assay on leukemia L1210 cell line [2] came out at 17.6 µM.
In the case of `N.N.O=C([O-])C1(C(=O)[O-])CCC1.[Pt+2]` [Carboplatin, reference compound], the “T/C (%)” value with leukemia L1210 cell line [1] (dosage amount 40 mg/kg) is recorded as 168/40%. In the assay on leukemia L1210 cell line [2], this compound came in with an IC50 of 10.2 µM.
For `N.N.[Cl][Pt][Cl]` [Cisplatin, reference compound], the “T/C (%)” value with leukemia L1210 cell line [1] (dosage amount 4 mg/kg) is given as 184/4%. 1 µM corresponded to half-maximal inhibition in the assay on leukemia L1210 cell line [2] (IC50).
In the case of `CC(=O)N[C@@H](CC(=O)[O-])C(=O)[O-].CC(C)(CN)CN.[Pt+2]` [Pt(dmpda)(AcAsp), (N-acetyl-L-aspartato-O,O)(2,2-dimethyl-1,3-propane-diamine-N,N)platinum(II)], the figures for the “T/C (%)” value with leukemia L1210 cell line [1] (dosage amount 20 mg/kg) and with leukemia L1210 cell line [1] (dosage amount 40 mg/kg) were 146.2% and 160.4%, respectively. In the assay with leukemia L1210 cell line [2], 3.19 µM corresponded to half-maximal inhibition (IC50).
As to “(N-acetyl-L-aspartato-O,O)(trans-(±)-1,2-diaminocyclo-hexane-N,N)platinum(II) [Pt(dach)(AcAsp)]”, the “T/C (%)” value in the assay with leukemia L1210 cell line [1] (dosage amount 20 mg/kg) is given as 179.6%; in the assay on leukemia L1210 cell line [1] (dosage amount 40 mg/kg), 225.0%. Moreover, the IC50 in the assay on leukemia L1210 cell line [2] amounted to 3.73 µM.
